Measurements taken from ChEMBL document CHEMBL3885881, “DrugMatrix”.

Organism: Rattus norvegicus
Test: DrugMatrix - Regimen: Daily Repeat
Type: toxicity, organism-based, Sprague-Dawley
Design: regimen Daily Repeat, gender Male, age 6-8 weeks
Conditions: in vivo, po, route oral GAVAGE, vehicle 100 % WATER; for ABSOLUTE BASOPHIL / ABSOLUTE EOSINOPHIL / ABSOLUTE LYMPHOCYTE / ABSOLUTE MONOCYTE / ABSOLUTE SEGMENTED NEUTROPHIL / BASOPHIL / EOSINOPHIL / ERYTHROCYTE COUNT / HEMATOCRIT / HEMOGLOBIN / LEUKOCYTE COUNT / LYMPHOCYTE / MEAN CORPUSCULAR HEMOGLOBIN / MEAN CORPUSCULAR HEMOGLOBIN CONCENTRATION / MEAN CORPUSCULAR VOLUME / MONOCYTE / NEUTROPHIL / NUCLEATED RED BLOOD CELLS / PLATELET COUNT: tissue Blood; for ALANINE AMINOTRANSFERASE / ALBUMIN / ALKALINE PHOSPHATASE / ASPARTATE AMINOTRANSFERASE / BLOOD UREA NITROGEN / CARBON DIOXIDE / CHLORIDE / CHOLESTEROL / CREATINE PHOSPHOKINASE / CREATININE / GLUCOSE / LACTATE DEHYDROGENASE / LIPASE / PHOSPHORUS / POTASSIUM / SODIUM / TOTAL BILIRUBIN / TOTAL PROTEIN / URIC ACID: tissue Plasma
[1] = 10 mg/kg, 120 h, dose level Low, time 5 day
[2] = 280 mg/kg, 72 h, dose level High, time 3 day
[3] = 280 mg/kg, 120 h, dose level High, time 5 day

For `NNc1nncc2ccccc12` [HYDRALAZINE], the “ABSOLUTE BASOPHIL” value [1] was 0 CELLS/uL, the “ABSOLUTE EOSINOPHIL” value [1] was 0 CELLS/uL and the “ABSOLUTE LYMPHOCYTE” value [1] was 12743.33 CELLS/uL. For the same compound, the “ABSOLUTE MONOCYTE” value [1] was 327.33 CELLS/uL, the “ABSOLUTE SEGMENTED NEUTROPHIL” value [1] was 1062.67 CELLS/uL and the BASOPHIL [1] was 0%. For the same compound, the EOSINOPHIL [1] was 0%, the “ERYTHROCYTE COUNT” value [1] was 5.27 x10E6/uL and the HEMATOCRIT [1] was 32.27%. The HEMOGLOBIN [1] was 13.07 G/DL, the “LEUKOCYTE COUNT” value [1] was 14.13 x10E3/uL and the LYMPHOCYTE [1] was 90%. For the same compound, the “MEAN CORPUSCULAR HEMOGLOBIN” value [1] was 24.8 pg, the “MEAN CORPUSCULAR HEMOGLOBIN CONCENTRATION” value [1] was 40.53 G/DL and the “MEAN CORPUSCULAR VOLUME” value [1] was 61.17 fL. For the same compound, the MONOCYTE [1] was 2.33%, the NEUTROPHIL [1] was 7.67% and the “NUCLEATED RED BLOOD CELLS” value [1] was 0 /100WBC. The “PLATELET COUNT” value [1] was 1239 x10E3/uL, the “ALANINE AMINOTRANSFERASE” value [1] was 50 u/L and the ALBUMIN [1] was 4.2 G/DL. The “ALKALINE PHOSPHATASE” value [1] was 452.67 u/L, the “ASPARTATE AMINOTRANSFERASE” value [1] was 79.67 u/L and the “BLOOD UREA NITROGEN” value [1] was 16.33 mg/dL. The “CARBON DIOXIDE” value [1] was 29.67 mmol/L, the CHLORIDE [1] was 100.33 MEQ/L and the CHOLESTEROL [1] was 68 mg/dL. For the same compound, the “CREATINE PHOSPHOKINASE” value [1] was 219.67 u/L, the CREATININE [1] was 0.15 mg/dL and the GLUCOSE [1] was 131.33 mg/dL. For the same compound, the “LACTATE DEHYDROGENASE” value [1] was 184 u/L, the LIPASE [1] was 11 u/L and the PHOSPHORUS [1] was 10.8 mg/dL. The POTASSIUM [1] was 5.91 MEQ/L, the SODIUM [1] was 142.03 MEQ/L and the “TOTAL BILIRUBIN” value [1] was 0.13 mg/dL. For the same compound, the “TOTAL PROTEIN” value [1] was 5.73 G/DL, the “URIC ACID” value [1] was 1.13 mg/dL and the “ABSOLUTE BASOPHIL” value [2] was 0 CELLS/uL. For the same compound, the “ABSOLUTE EOSINOPHIL” value [2] was 0 CELLS/uL, the “ABSOLUTE LYMPHOCYTE” value [2] was 9108 CELLS/uL and the “ABSOLUTE MONOCYTE” value [2] was 0 CELLS/uL. For the same compound, the “ABSOLUTE SEGMENTED NEUTROPHIL” value [2] was 792 CELLS/uL, the BASOPHIL [2] was 0% and the EOSINOPHIL [2] was 0%. The “ERYTHROCYTE COUNT” value [2] was 5.62 x10E6/uL, the HEMATOCRIT [2] was 33.4% and the HEMOGLOBIN [2] was 13 G/DL. The “LEUKOCYTE COUNT” value [2] was 9.9 x10E3/uL, the LYMPHOCYTE [2] was 92% and the “MEAN CORPUSCULAR HEMOGLOBIN” value [2] was 23.1 pg. For the same compound, the “MEAN CORPUSCULAR HEMOGLOBIN CONCENTRATION” value [2] was 38.9 G/DL, the “MEAN CORPUSCULAR VOLUME” value [2] was 59.4 fL and the MONOCYTE [2] was 0%. For the same compound, the NEUTROPHIL [2] was 8%, the “NUCLEATED RED BLOOD CELLS” value [2] was 0 /100WBC and the “PLATELET COUNT” value [2] was 1418 x10E3/uL. For the same compound, the “ALANINE AMINOTRANSFERASE” value [2] was 36 u/L, the ALBUMIN [2] was 4.1 G/DL and the “ALKALINE PHOSPHATASE” value [2] was 257 u/L. For the same compound, the “ASPARTATE AMINOTRANSFERASE” value [2] was 59 u/L, the “BLOOD UREA NITROGEN” value [2] was 21 mg/dL and the “CARBON DIOXIDE” value [2] was 32 mmol/L. For the same compound, the CHLORIDE [2] was 99 MEQ/L, the CHOLESTEROL [2] was 74 mg/dL and the “CREATINE PHOSPHOKINASE” value [2] was 207 u/L. For the same compound, the CREATININE [2] was 0.14 mg/dL, the GLUCOSE [2] was 142 mg/dL and the “LACTATE DEHYDROGENASE” value [2] was 151 u/L. It also gave an LIPASE [2] of 10 u/L, a PHOSPHORUS [2] of 10.8 mg/dL and a POTASSIUM [2] of 5.22 MEQ/L. For the same compound, the SODIUM [2] was 139.9 MEQ/L, the “TOTAL BILIRUBIN” value [2] was 0.1 mg/dL and the “TOTAL PROTEIN” value [2] was 5.4 G/DL. The “URIC ACID” value [2] was 1.3 mg/dL, the “ABSOLUTE BASOPHIL” value [3] was 0 CELLS/uL and the “ABSOLUTE EOSINOPHIL” value [3] was 0 CELLS/uL. For the same compound, the “ABSOLUTE LYMPHOCYTE” value [3] was 8493.67 CELLS/uL, the “ABSOLUTE MONOCYTE” value [3] was 293 CELLS/uL and the “ABSOLUTE SEGMENTED NEUTROPHIL” value [3] was 980 CELLS/uL. For the same compound, the BASOPHIL [3] was 0%, the EOSINOPHIL [3] was 0% and the “ERYTHROCYTE COUNT” value [3] was 5.59 x10E6/uL. The HEMATOCRIT [3] was 33.5%, the HEMOGLOBIN [3] was 13.07 G/DL and the “LEUKOCYTE COUNT” value [3] was 9.77 x10E3/uL. For the same compound, the LYMPHOCYTE [3] was 87.67%, the “MEAN CORPUSCULAR HEMOGLOBIN” value [3] was 23.37 pg and the “MEAN CORPUSCULAR HEMOGLOBIN CONCENTRATION” value [3] was 39 G/DL. The “MEAN CORPUSCULAR VOLUME” value [3] was 59.97 fL, the MONOCYTE [3] was 3% and the NEUTROPHIL [3] was 9.33%. For the same compound, the “NUCLEATED RED BLOOD CELLS” value [3] was 0 /100WBC, the “PLATELET COUNT” value [3] was 1213 x10E3/uL and the “ALANINE AMINOTRANSFERASE” value [3] was 40.33 u/L. For the same compound, the ALBUMIN [3] was 4.2 G/DL, the “ALKALINE PHOSPHATASE” value [3] was 309.67 u/L and the “ASPARTATE AMINOTRANSFERASE” value [3] was 58.67 u/L. For the same compound, the “BLOOD UREA NITROGEN” value [3] was 18.33 mg/dL, the “CARBON DIOXIDE” value [3] was 25.67 mmol/L and the CHLORIDE [3] was 101 MEQ/L. For the same compound, the CHOLESTEROL [3] was 65.33 mg/dL, the “CREATINE PHOSPHOKINASE” value [3] was 302.33 u/L and the CREATININE [3] was 0.16 mg/dL. For the same compound, the GLUCOSE [3] was 143 mg/dL, the “LACTATE DEHYDROGENASE” value [3] was 125 u/L and the LIPASE [3] was 11.33 u/L. The PHOSPHORUS [3] was 10.47 mg/dL, the POTASSIUM [3] was 5.72 MEQ/L and the SODIUM [3] was 140.6 MEQ/L. The “TOTAL BILIRUBIN” value [3] was 0.17 mg/dL, the “TOTAL PROTEIN” value [3] was 5.47 G/DL and the “URIC ACID” value [3] was 1.43 mg/dL.
